Assay results from ChEMBL document CHEMBL1221239, “Triaryl (Z)-olefins suitable for radiolabeling with carbon-11 or fluorine-18 radionuclides for positron emission tomography imaging of cyclooxygenase-2 expression in pathological disease” (Bioorg Med Chem Lett, 2010).

Tests used:
[1] = biological target: T1, Prostaglandin G/H synthase 2 (Homo sapiens, UniProt P35354); assay: Inhibition of human recombinant COX2 by EIA
T1 sequence (P35354 whole entry): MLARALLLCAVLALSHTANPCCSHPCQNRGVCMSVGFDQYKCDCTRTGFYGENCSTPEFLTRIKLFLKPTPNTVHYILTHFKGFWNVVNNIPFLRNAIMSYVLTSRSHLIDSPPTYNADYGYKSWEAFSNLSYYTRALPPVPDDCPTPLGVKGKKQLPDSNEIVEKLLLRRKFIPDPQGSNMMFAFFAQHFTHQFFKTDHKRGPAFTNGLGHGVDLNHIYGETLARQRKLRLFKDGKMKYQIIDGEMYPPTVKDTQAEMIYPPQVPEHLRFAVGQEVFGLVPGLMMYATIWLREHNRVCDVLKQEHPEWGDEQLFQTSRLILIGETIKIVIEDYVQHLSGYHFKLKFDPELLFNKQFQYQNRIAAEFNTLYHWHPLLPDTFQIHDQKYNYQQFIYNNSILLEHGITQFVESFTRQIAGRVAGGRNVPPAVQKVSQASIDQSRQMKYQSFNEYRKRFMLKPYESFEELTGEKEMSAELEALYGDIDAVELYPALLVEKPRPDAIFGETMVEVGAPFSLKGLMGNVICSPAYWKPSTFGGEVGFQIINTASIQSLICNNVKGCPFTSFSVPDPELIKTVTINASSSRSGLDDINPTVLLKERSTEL

[2] = Selectivity index, ratio of IC50 for ovine COX1 to IC50 for human recombinant COX2
[3] = biological target: T2, Prostaglandin G/H synthase 1 (Ovis aries, UniProt P05979)
T2 sequence (P05979 whole entry): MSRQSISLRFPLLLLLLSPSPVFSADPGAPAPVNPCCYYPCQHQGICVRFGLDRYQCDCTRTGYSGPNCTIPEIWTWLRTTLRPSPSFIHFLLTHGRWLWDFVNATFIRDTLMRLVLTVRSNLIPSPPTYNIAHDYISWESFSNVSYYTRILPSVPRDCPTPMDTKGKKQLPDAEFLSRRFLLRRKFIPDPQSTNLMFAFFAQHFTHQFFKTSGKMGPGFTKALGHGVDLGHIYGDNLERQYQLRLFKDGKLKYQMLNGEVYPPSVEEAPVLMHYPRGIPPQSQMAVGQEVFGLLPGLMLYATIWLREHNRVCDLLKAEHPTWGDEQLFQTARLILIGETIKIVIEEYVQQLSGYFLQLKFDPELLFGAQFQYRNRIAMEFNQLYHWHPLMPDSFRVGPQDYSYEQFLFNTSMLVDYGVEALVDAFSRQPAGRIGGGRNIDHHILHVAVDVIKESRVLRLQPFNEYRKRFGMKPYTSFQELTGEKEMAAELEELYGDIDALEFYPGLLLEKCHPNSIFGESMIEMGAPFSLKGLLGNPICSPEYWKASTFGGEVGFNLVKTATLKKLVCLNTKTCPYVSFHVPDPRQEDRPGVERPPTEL
Description: Inhibition of ovine COX1 by EIA

IC50 [1] [µM]	Ratio IC50 [2]	IC50 [3] [µM]	SMILES
2.7	3.4	9.1	CCCCC(=C(c1ccccc1)c1ccccc1)c1ccc(S(C)(=O)=O)cc1
11.8	> 8.5	> 100	CCCC/C(=C(\c1ccccc1)c1ccc(O)cc1)c1ccc(S(C)(=O)=O)cc1
1.2	26.3	31.6	CCC(=C(c1ccccc1)c1ccccc1)c1ccc(S(C)(=O)=O)cc1
22.3	> 4.5	> 100	CCCC/C(=C(\c1ccccc1)c1ccc(OCCF)cc1)c1ccc(S(C)(=O)=O)cc1
> 100	–	> 100	CS(=O)(=O)c1ccc(C(CCF)=C(c2ccccc2)c2ccccc2)cc1
7.7	> 13	> 100	CCCC/C(=C(\c1ccccc1)c1ccc(OC)cc1)c1ccc(S(C)(=O)=O)cc1
10.7	> 9.3	> 100	CC/C(=C(\c1ccccc1)c1ccc(OC)cc1)c1ccc(S(C)(=O)=O)cc1
